{
  "source": "patent US11028077B2",
  "about": "“Crystalline pharmaceutical and methods of preparation and use thereof” (NOVARTIS PHARMACEUTICALS CORPORATION, priority 2008, dated 2021)",
  "system": "tester strains",
  "assay": "In vitro Ames bacterial reverse mutation assay",
  "type": "cell-based",
  "details": "presence or absence of microsomal (S9) enzymes",
  "excerpt": "Therefore, the compound of Formula I was judged to be not mutagenic.",
  "data": [
    {"compound": "CS(=O)(=O)c1cccc(C[C@H](NC(=O)c2c(Cl)cc3c(c2Cl)CCN(C(=O)c2ccc4ccoc4c2)C3)C(=O)O)c1", "note": "[compound of Formula I]", "values": [
      {"measurement": "mutagenicity (revertants per plate)", "value": "not mutagenic"}
    ]}
  ]
}
